Literature values, collected in US20050009919A1, “Treating cachexia and excessive catabolism with (-)-hydroxycitric acid” (priority 2003, published 2005).

Molecule | Anorectic results in clinical trials (1.2 grams to 3 grams of HCA per day, divided doses before meals) | Appetite suppression in clinical trials (Heymsfield 1998, Mattes 2000) | Weight change in clinical trials (Heymsfield 1998, Mattes 2000)
calcium (−)-hydroxycitrate [reference compound] | failed to produce anorectic results |  | 
O=C(O)CC(O)(C(=O)O)C(O)C(=O)O (single isomer, unassigned; (-)) [HCA, (−)-Hydroxycitric acid] |  | failed to produce appetite suppression | not-statistically-significant trends toward weight elevation
